The record followed here is the METLIN SMRT retention time set (Domingo-Almenara et al. 2019).

The series is described as follows: gradient 5% acetonitrile 3 min, to 50% in 2 min, to 85% in 15 min, held 3 min, 100 µL/min. The following applies: column: Zorbax Extend-C18 2.1 x 50 mm; eluents: water / acetonitrile, 0.1% formic acid. The procedure, abridged: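 Pure standards were run in mixtures of ~100 molecules by HPLC coupled to a quadrupole time-of-flight mass spectrometer. The column was a Zorbax Extend-C18 (2.1 × 50 mm, 1.8 μm) at 100 μL/min, with water and acetonitrile each containing 0.1% formic acid, in positive and negative ionization mode. Dead and dwell volumes were 40 μL and 900 μL. Retention time was taken from computationally picked adduct peaks, each manually inspected, with data collected over 3 months.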
On to `COc1ccc(N2CCN(C(=O)C3CCN(S(=O)(=O)c4cn(C)cn4)CC3)CC2)cc1`, for which the RP-LC retention time was found to be 628 s. The molecule `CCOC(=O)C(=O)NCC1CCC(c2nc3ccccc3n2C)CC1` (centres undefined) registered an RP-LC retention time of 552 s. With `Clc1ccc(-c2noc(Cc3nnc(-c4ccccc4)o3)n2)cc1` the figure was 1050 s. With `COCCCNC(=O)CCCn1c(=O)c2cccn2c2ccccc21`, the RP-LC retention time came to 682 s. `O=C(Nc1nc2ccccc2s1)C1CCN(C(=O)c2ccc(F)cc2)CC1` returned an RP-LC retention time of 808 s. `Fc1ccc(-c2nnc(-c3ccc(-n4ccnc4)nc3)o2)c(F)c1` yielded an RP-LC retention time of 645 s. `O=C(CCc1c(-c2ccc(Cl)cc2)nc2ccccn12)NC1CCCC1` gave an RP-LC retention time of 638 s. Consider `COC(=O)c1ncn2c1C(=O)N(Cc1cccc(C)c1)C(C)(C(=O)NCc1ccc(C)cc1)C2` (centres undefined), for which the RP-LC retention time came to 801 s. Regarding `CCCN1C(=O)c2cc(S(=O)(=O)NC(C)C)ccc2Oc2cccnc21`, the RP-LC retention time amounted to 960 s. The molecule `CCOc1cccc2c1OC1(C)CC2NC(=O)N1c1cccc(C(=O)NCc2ccccn2)c1` (centres undefined) came in with an RP-LC retention time of 607 s. In the case of `Cc1ccc2c(c1)N(C(=O)Cn1cnc3nc4c(cc3c1=O)CCCC4)CCO2`, the RP-LC retention time came to 782 s. `Cc1cccc(CNC2=NCCNC23CCN(S(=O)(=O)c2cc(C)cc(C)c2)CC3)c1` came in with an RP-LC retention time of 787 s. Consider `COc1ccc(NC(=O)C2CCc3sc(C(=O)N4CCCC4)cc3C2)c(OC)c1` (centres undefined), for which the RP-LC retention time was determined as 756 s. For `CCOC(=O)c1c(S(=O)(=O)N2CCC(C(=O)Nc3cccc(CC)c3)CC2)c(C)n(CC)c1C`, the RP-LC retention time was determined as 984 s.

Regarding `CC1CCCCN1CCNC(=O)CCCn1c(=O)c2cccn2c2ccc(Br)cc21` (centres undefined), the RP-LC retention time was 673 s. With `Cc1nc2cc(-c3noc(-c4ccc(C#N)cc4)n3)ccc2n(C)c1=O` the figure was 965 s. `COc1ccc(C(=O)Nc2cccn3nc(C4CC4)nc23)cc1`: the RP-LC retention time is 839 s. `O=C(NCc1cccs1)C1CCCN(c2cnc3nccnc3c2)C1` (centres undefined): the RP-LC retention time was 661 s. In the case of `CCOC(=O)COc1cc(-c2ccc(C)cc2)nc2ccc(NC(=O)c3cccs3)cc12`, the RP-LC retention time worked out at 830 s.

`CCNC(=O)N1CC(n2cc(C(=O)NCCOC)nn2)C1` returned an RP-LC retention time of 1260 s. `Cn1cc(C2=CCN(C(=O)Cc3ccccc3F)CC2)c2cccnc21` returned an RP-LC retention time of 855 s. Molecule `Cc1cccc(CN2C(=O)N(c3cccc(F)c3)c3ncccc3S2(=O)=O)c1` showed an RP-LC retention time of 1050 s. Molecule `CCSc1nc2ccc(NS(=O)(=O)c3cccc(Cl)c3)cc2s1` returned an RP-LC retention time of 1070 s.

`CCCCNC(=O)C1Cc2cc(S(=O)(=O)N3CCCCC3)ccc2N1C(C)=O` (centres undefined) registered an RP-LC retention time of 806 s. In turn, `CC1=C(c2ccc(Cl)cc2)S(=O)(=O)N=C1N1CCCN(C(=O)Cn2ccnc2)CC1` had an RP-LC retention time of 633 s. On to `CCc1noc(NC(C)=O)c1-c1ccc(OC)c(S(=O)(=O)Nc2cc(C)cc(C)c2)c1`, for which the RP-LC retention time was found to be 852 s. With `COC[C@@H]1CN(C(=O)Cn2nc(C(F)(F)F)cc2C)C[C@H]1C(N)=O` the figure was 622 s; with `COCC1CN(C(=O)c2ccc3cc[nH]c3c2)CC12CCOCC2` (centres undefined), 680 s. With `COc1ccc(N2CCN(C(=O)C3CCCN(c4cnc5nccnc5c4)C3)CC2)cc1` (centres undefined) the figure was 737 s; with `O=C(CCc1nc(CSc2nnc(-c3ccccc3)o2)no1)Nc1ccc(F)c(Cl)c1`, 973 s; with `CCc1nn2c(N3CCN(c4cccc(C)n4)CC3)cc(C)nc2c1-c1ccccc1`, 1100 s. `Cn1c(=O)n(C)c2cc(CNc3ccc(N4CCOCC4)cc3)ccc21` gave an RP-LC retention time of 600 s.

`O=C(O)c1nnn(-c2ccc3c(c2)CCC3)c1-c1cccnc1` showed an RP-LC retention time of 711 s.

Molecule `Cc1nc(-c2noc(-c3ccc(F)cc3)n2)cn1CC(=O)NC(C)c1ccccc1` (centres undefined) showed an RP-LC retention time of 854 s.

`CCn1cc(C2=CCN(C(=O)Nc3ccc(OC)c(OC)c3)CC2)c2cccnc21` came in with an RP-LC retention time of 759 s. As for `Cc1ccc(NC(=O)N2CC(N(C)Cc3cccnc3)C2)cc1C`, the RP-LC retention time turned out to be 605 s. Take `CCCNC(=O)Cn1c(CC)nc2ccccc21`: the RP-LC retention time came out at 578 s.

For the molecule `O=C(c1ccco1)N1CCC(F)(C(=O)N2CCCC2)CC1`, the RP-LC retention time came to 653 s. The molecule `COc1cccc(S(=O)(=O)NCc2ccc(C(=O)Nc3cccc(Cl)c3)cc2)c1` came in with an RP-LC retention time of 922 s. As for `CC(C)c1ccc2c(c1)-c1ccccc1S(=O)(=O)N2CC(=O)NCc1cccnc1`, the RP-LC retention time turned out to be 711 s.

For the molecule `CC(C)CNC(=O)C1CCN(c2nc3ccsc3c(=O)n2Cc2ccc(F)cc2)CC1`, the RP-LC retention time was determined as 884 s.

Molecule `Cn1c(=O)c(=O)n(C)c2cc(NC(=O)c3cccs3)ccc21` had an RP-LC retention time of 653 s. With `COC(=O)C1=CN(c2cccc(F)c2)c2cc(Br)ccc2S1(=O)=O` the figure was 928 s; with `CC(=O)N1CCc2cc(C)c(S(=O)(=O)NCc3ccco3)cc21`, 742 s; with `CCC(C(=O)N1CCn2c(C)nnc2C1)c1ccccc1` (centres undefined), 643 s. `COc1ccc(S(=O)(=O)Nc2c(C)n(C)n(-c3ccccc3)c2=O)cc1[N+](=O)[O-]` registered an RP-LC retention time of 699 s. With `CC(=O)N1CCc2cc(CNS(=O)(=O)Cc3ccccc3)ccc21` the figure was 750 s; with `Cc1ccc2c(c1)C(=O)NC1(CCN(C(=O)c3ccc(F)c(F)c3)CC1)N2C`, 795 s.

On to `O=C(c1csc(C(=O)N2CCCC2)n1)N1CCN(Cc2ccccc2)CC1`, for which the RP-LC retention time turned out to be 603 s. In the case of `CCOc1ccc(C2Cn3nnc(-c4nc(-c5ccccc5OC)no4)c3CO2)cc1` (centres undefined), the RP-LC retention time stood at 1090 s. As for `Cc1cc(NS(=O)(=O)c2cc(-c3nc(C(C)(C)C)cs3)cs2)ccc1F`, the RP-LC retention time stood at 1220 s. As to `CCCS(=O)(=O)c1nc2ccc(NS(=O)(=O)c3ccc(C(C)(C)C)cc3)cc2s1`, the RP-LC retention time was 1110 s.

In turn, `CCNC(=O)C1CCCN(c2nc3ncn(CC(=O)Nc4ccc(F)cc4Cl)c(=O)c3s2)C1` (centres undefined) showed an RP-LC retention time of 681 s. `CCCCNC(=O)C1CCCN1C(=O)c1ccc(NC(=O)C(C)(C)C)cc1` (centres undefined) registered an RP-LC retention time of 693 s. With `Cc1cc(OCC(=O)Nc2ccnn2Cc2cccs2)ccc1Cl` the figure was 913 s; with `CCOC(=O)c1[nH]c(C)c(CCC(=O)N2CCC(C(=O)NCc3ccccc3Cl)CC2)c1C`, 808 s. In turn, `COc1ccc(CNC(=O)c2cn3ccc(C)cc3n2)c(OC)c1` yielded an RP-LC retention time of 730 s. With `CCN1CCN(S(=O)(=O)c2cc(-c3nc(C(C)C)cs3)sc2C)CC1` the figure was 744 s; with `CN(c1cccc(C(F)(F)F)c1)S(=O)(=O)c1cc2n(c1)CCCNC2=O`, 759 s.
